The experiment addresses T1, recombinant hFAP (Homo sapiens, UniProt Q12884).
T1 sequence (Q12884 26-760 limits assumed): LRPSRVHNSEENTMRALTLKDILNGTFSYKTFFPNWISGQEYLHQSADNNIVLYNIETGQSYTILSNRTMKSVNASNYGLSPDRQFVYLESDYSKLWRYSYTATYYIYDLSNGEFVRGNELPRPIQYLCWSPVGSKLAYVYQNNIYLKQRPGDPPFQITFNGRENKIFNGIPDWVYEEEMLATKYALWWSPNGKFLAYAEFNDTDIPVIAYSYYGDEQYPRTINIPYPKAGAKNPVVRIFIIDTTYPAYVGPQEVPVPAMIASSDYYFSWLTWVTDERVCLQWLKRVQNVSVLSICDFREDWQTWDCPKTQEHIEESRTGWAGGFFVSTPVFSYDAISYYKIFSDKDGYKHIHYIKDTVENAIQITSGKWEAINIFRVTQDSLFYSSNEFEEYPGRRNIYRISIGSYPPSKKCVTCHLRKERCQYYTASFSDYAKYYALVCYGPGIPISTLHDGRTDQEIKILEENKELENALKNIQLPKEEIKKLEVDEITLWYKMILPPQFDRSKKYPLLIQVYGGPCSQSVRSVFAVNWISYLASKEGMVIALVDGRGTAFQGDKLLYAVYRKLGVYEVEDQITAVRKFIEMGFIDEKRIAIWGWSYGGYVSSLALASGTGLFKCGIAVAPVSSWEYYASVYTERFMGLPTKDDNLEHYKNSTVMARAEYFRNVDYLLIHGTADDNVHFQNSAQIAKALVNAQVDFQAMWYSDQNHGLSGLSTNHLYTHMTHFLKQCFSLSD
As to the kind of experiment: hFAP inhibition assay (Z-Gly-Pro-AMC substrate). The format is biochemical. The conditions noted are these: for IC50 / inhibitory activity, comparison in words: recombinant hFAP; for pIC50: Z-Gly-Pro-AMC 20 μM, protein 66 μM, pH 7.4, room temperature. As to the method:
(§1) Enzymatic activity of hFAP on the Z-Gly-Pro-AMC substrate was measured at room temperature on a microtiter plate reader, monitoring the fluorescence at an excitation wavelength of 360 nm and an emission wavelength of 465 nm. The reaction mixture contained substrate (20 μM), protein (66 μM, constant), assay buffer (50 mM Tris, 100 mM NaCl, and 1 mM EDTA, pH=7.4), and inhibitors with serial dilution from 167 nM to 80 fM, 1:2 in a total volume of 20 μL. Experiments were performed in triplicate, and the mean fluorescence values were fitted using Prism 7. The value is defined as the concentration of inhibitor required to reduce the enzyme activity by 50% after addition of the substrate [FIG. 1 and FIG. 8].
According to the same procedure, further comparative inhibition assays with trimeric binders having inter alia different lengths of linker group B and/or different payload groups C were performed with compounds Tri-ESV6-ValCit-MMAE (14), Tri-ESV6-linker-DOTAGA (13) and diastereoisomers of Tri-ESV6-DOTAGA (11, 12) [FIG. 18]. Comparative hFAP inhibition assays with tetravalent binders 10 and 29 were also performed [FIG. 20].
as §1, with “substrate.” for “substrate [FIG. 1 and FIG. 8].”
as §1, with “e) Inhibition assay with Tri-ESV6-DOTAGA, Tetra-ESV6-DOTAGA, Hexa-ESV6-DOTAGA, Octa-ESV6-DOTAGA, ESV6-L-DOTAGA and BI-ESV6-L-DOTAGA. Enzymatic” for “Enzymatic”, “substrate.” for “substrate [FIG. 1 and FIG. 8].”

pIC50: −log10 of the molar value.

As to `N#C[C@@H]1CC(F)(F)CN1C(=O)CNC(=O)c1ccnc2c(NC(=O)CCC(=O)NCCCCC(NC(=O)CCC(=O)Nc3cccc4c(C(=O)NCC(=O)N5CC(F)(F)C[C@H]5C#N)ccnc34)C(=O)NCCNC(=O)CCC(C(=O)O)N3CCN(CC(=O)O)CCN(CC(=O)O)CCN(CC(=O)O)CC3)cccc12` (stereo partly shown) [Bi-ESV6-DOTAGA, reference compound], the “IC50 / inhibitory activity, comparison in words” value is “IC50 comparable to the ones of original derivatives”. The same measure, in the same setting: in the case of `N#C[C@@H]1CC(F)(F)CN1C(=O)CNC(=O)c1ccnc2c(NC(=O)CCC(=O)NCCNC(=O)CCOCCNC(=O)CCC(C(=O)O)N3CCN(CC(=O)O)CCN(CC(=O)O)CCN(CC(=O)O)CC3)cccc12` (stereo partly drawn) [ESV6-L-DOTAGA] it was “IC50 comparable to the ones of original derivatives”. On the same count and under the same terms, in the case of `N#C[C@@H]1CC(F)(F)CN1C(=O)CNC(=O)c1ccnc2c(NC(=O)CCC(=O)NCCNC(=O)CCOCC(COCCC(=O)NCCNC(=O)CCC(=O)Nc3cccc4c(C(=O)NCC(=O)N5CC(F)(F)C[C@H]5C#N)ccnc34)NC(=O)CCOCC(COCCC(=O)NC(COCCC(=O)NCCNC(=O)CCC(=O)Nc3cccc4c(C(=O)NCC(=O)N5CC(F)(F)C[C@H]5C#N)ccnc34)COCCC(=O)NCCNC(=O)CCC(=O)Nc3cccc4c(C(=O)NCC(=O)N5CC(F)(F)C[C@H]5C#N)ccnc34)NC(=O)CCC(C(=O)O)N3CCN(CC(=O)O)CCN(CC(=O)O)CCN(CC(=O)O)CC3)cccc12` (stereo partly shown) [Tetra-ESV6-DOTAGA] it was “directly proportional to the valency until Tetra-ESV6-DOTAGA”.

The term pIC50 denotes the IC50 on a negative log10 scale, so that one unit is a factor of ten. With `N#C[C@@H]1CC(F)(F)CN1C(=O)CNC(=O)c1ccnc2c(NC(=O)CCC(=O)NCCOCCOCCC(=O)NCCNC(=O)CCOCC(COCCC(=O)NCCNC(=O)CCOCCOCCNC(=O)CCC(=O)Nc3cccc4c(C(=O)NCC(=O)N5CC(F)(F)C[C@H]5C#N)ccnc34)(COCCC(=O)NCCNC(=O)CCOCCOCCNC(=O)CCC(=O)Nc3cccc4c(C(=O)NCC(=O)N5CC(F)(F)C[C@H]5C#N)ccnc34)NC(=O)CCC(C(=O)O)N3CCN(CC(=O)O)CCN(CC(=O)O)CCN(CC(=O)O)CC3)cccc12` (stereo partly shown) [Tri-ESV6-PEG2-DOTAGA], the pIC50 was 10.42.

Consider `N#C[C@@H]1CC(F)(F)CN1C(=O)CNC(=O)c1ccnc2c(NC(=O)CCC(=O)NCCOCCOCCOCCOCCC(=O)NCCNC(=O)CCOCC(COCCC(=O)NCCNC(=O)CCOCCOCCOCCOCCNC(=O)CCC(=O)Nc3cccc4c(C(=O)NCC(=O)N5CC(F)(F)C[C@H]5C#N)ccnc34)(COCCC(=O)NCCNC(=O)CCOCCOCCOCCOCCNC(=O)CCC(=O)Nc3cccc4c(C(=O)NCC(=O)N5CC(F)(F)C[C@H]5C#N)ccnc34)NC(=O)CCC(C(=O)O)N3CCN(CC(=O)O)CCN(CC(=O)O)CCN(CC(=O)O)CC3)cccc12` (stereo partly shown) [Tri-ESV6-PEG4-DOTAGA], for which the pIC50 was 9.90. On the same count and under the same terms, under `N#C[C@@H]1CC(F)(F)CN1C(=O)CNC(=O)c1ccnc2c(NC(=O)CCC(=O)NCCOCCOCCOCCOCCOCCOCCC(=O)NCCNC(=O)CCOCC(COCCC(=O)NCCNC(=O)CCOCCOCCOCCOCCOCCOCCNC(=O)CCC(=O)Nc3cccc4c(C(=O)NCC(=O)N5CC(F)(F)C[C@H]5C#N)ccnc34)(COCCC(=O)NCCNC(=O)CCOCCOCCOCCOCCOCCOCCNC(=O)CCC(=O)Nc3cccc4c(C(=O)NCC(=O)N5CC(F)(F)C[C@H]5C#N)ccnc34)NC(=O)CCC(C(=O)O)N3CCN(CC(=O)O)CCN(CC(=O)O)CCN(CC(=O)O)CC3)cccc12` (stereo partly shown) [Tri-ESV6-PEG6-DOTAGA] stands 9.56; under `N#C[C@@H]1CC(F)(F)CN1C(=O)CNC(=O)c1ccnc2c(NC(=O)CCC(=O)NCCOCCOCCOCCOCCOCCOCCOCCOCCC(=O)NCCNC(=O)CCOCC(COCCC(=O)NCCNC(=O)CCOCCOCCOCCOCCOCCOCCOCCOCCNC(=O)CCC(=O)Nc3cccc4c(C(=O)NCC(=O)N5CC(F)(F)C[C@H]5C#N)ccnc34)(COCCC(=O)NCCNC(=O)CCOCCOCCOCCOCCOCCOCCOCCOCCNC(=O)CCC(=O)Nc3cccc4c(C(=O)NCC(=O)N5CC(F)(F)C[C@H]5C#N)ccnc34)NC(=O)CCC(C(=O)O)N3CCN(CC(=O)O)CCN(CC(=O)O)CCN(CC(=O)O)CC3)cccc12` (stereo partly shown) [Tri-ESV6-PEG8-DOTAGA], 8.96.

The values above are taken from patent publication US20260364214A1, “MULTIVALENT FIBROBLAST ACTIVATION PROTEIN LIGANDS FOR TARGETED DELIVERY APPLICATIONS” (Philochem AG, priority 2022, published 2026).
